Reference: ChEMBL document CHEMBL1129482, “Synthesis and anti-herpes virus activity of 2'-deoxy-4'-thiopyrimidine nucleosides” (J Med Chem, 1996)

What was measured:
[1] = Inhibitory activity against herpes simplex virus type 2 (HSV 2) strain 186 in Vero cells.; format: functional, cell-based
Vero [2] = experiment: Inhibitory dose required to reduce the growth of vero cells by 50% over a 4 day period.; format: functional, Chlorocebus sabaeus
Human betaherpesvirus 5 = experiment: Inhibitory activity against human cytomegalovirus (HCMV) strain AD169 in MRC-5 cells.; format: functional, organism-based; conditions: Human betaherpesvirus 5, MRC5
Human alphaherpesvirus 1 = experiment: Inhibitory activity against herpes simplex virus type 1 (HSV-1) strain SC16 in Vero cells.; format: functional, organism-based; conditions: Human alphaherpesvirus 1, Vero
Human alphaherpesvirus 3 = experiment: Inhibitory activity against varicella zoster virus (VZV) strain G31 in MRC-5 cells.; format: functional, organism-based; conditions: Human alphaherpesvirus 3, MRC5
Vero [3] = experiment: Inhibitory dose required to reduce the growth of Vero cells by 50% over a 4 day period; format: functional, Chlorocebus sabaeus
MRC5 = experiment: Inhibitory activity against varicella zoster virus (VZV) strain G31 was determined in MRC-5 cells; Toxicity at 40 uM; format: functional, cell-based, Homo sapiens
Vero [4] = experiment: Inhibitory activity against herpes simplex virus type 1 (HSV 1) strain SC16 was determined in Vero cells; Range is 0.17-0.5 uM; format: functional, cell-based; conditions: Chlorocebus sabaeus
Vero [5] = experiment: Inhibitory activity against herpes simplex virus type 2 (HSV 2) strain 186 was determined in Vero cells; Range is 2-5 uM; format: functional, cell-based; conditions: Chlorocebus sabaeus

| SMILES | IC50 [1] [µM] | CCID50 (Vero [2]) [µM] | IC50 (Human betaherpesvirus 5) [µM] | IC50 (Human alphaherpesvirus 1) [µM] | IC50 (Human alphaherpesvirus 3) [µM] | CCID50 (Vero [3]) [µM] | IC50 (MRC5) | IC50 (Vero [4]) [µM] | IC50 (Vero [5]) [µM] |
| --- | --- | --- | --- | --- | --- | --- | --- | --- | --- |
| CC(C)(C)c1cn([C@H]2CC(O)C(CO)S2)c(=O)[nH]c1=O (stereo partly specified) | > 100 | 475 | > 100 | – | – | – | – | – | – |
| O=c1[nH]c(=O)n([C@H]2CC(O)C(CO)S2)cc1/C=C/Cl (stereo partly specified) | > 100 | >500 | > 100 | 0.5 | > 10 | – | – | – | – |
| C=C(C)c1cn([C@H]2CC(O)C(CO)S2)c(=O)[nH]c1=O (stereo partly specified) | > 100 | – | > 100 | 3.4 | < 40 | >500 | – | – | – |
| O=c1[nH]c(=O)n([C@H]2CC(O)C(CO)S2)cc1CCF (stereo partly specified) | > 100 | >500 | > 100 | 0.7 | 0.12 | – | – | – | – |
| O=c1[nH]c(=O)n([C@H]2CC(O)C(CO)S2)cc1[N+](=O)[O-] (stereo partly specified) | 27 | 476 | – | 18 | 13 | – | – | – | – |
| O=C1NC(=O)N(C2CC(O)C(CO)S2)C2CCCC12 (stereo unspecified) | > 100 | >500 | > 100 | – | > 40 | – | – | – | – |
| O=c1[nH]c(=O)n([C@H]2CC(O)C(CO)S2)cc1C12CC3CC(CC(C3)C1)C2 (stereo partly specified) | > 100 | >125 | > 100 | > 100 | – | – | Toxic | – | – |
| O=c1[nH]c(=O)n([C@H]2CC(O)C(CO)S2)cc1CC(F)(F)F (stereo partly specified) | > 100 | >500 | > 100 | – | > 40 | – | – | – | – |
| COc1cn(C2CC(O)C(CO)S2)c(=O)[nH]c1=O (stereo unspecified) | > 100 | – | > 100 | > 100 | > 100 | – | – | – | – |
| O=c1[nH]c(=O)n([C@@H]2CC(O)C(CO)S2)cc1[N+](=O)[O-] (stereo partly specified) | > 100 | – | – | > 100 | > 100 | – | – | – | – |
| COCCc1cn([C@H]2CC(O)C(CO)S2)c(=O)[nH]c1=O (stereo partly specified) | > 100 | – | > 100 | – | > 10 | – | – | – | – |
| C#CCc1cn([C@H]2CC(O)C(CO)S2)c(=O)[nH]c1=O (stereo partly specified) | > 100 | 492 | 100 | > 100 | 1.4 | – | – | – | – |
| N#Cc1cn([C@H]2CC(O)C(CO)S2)c(=O)[nH]c1=O (stereo partly specified) | > 100 | >500 | > 100 | > 100 | > 100 | – | – | – | – |
| C#Cc1cn([C@H]2CC(O)C(CO)S2)c(=O)[nH]c1=O (stereo partly specified) | > 10 | 33 | 9.3 | 6.6 | 5.5 | – | – | – | – |
| CC(O)c1cn(C2CC(O)C(CO)S2)c(=O)[nH]c1=O (stereo unspecified) | > 100 | >500 | > 100 | 40 | 12 | – | – | – | – |
| C/C=C/c1cn([C@H]2CC(O)C(CO)S2)c(=O)[nH]c1=O (stereo partly specified) | > 20 | >100 | > 100 | > 2 | 0.46 | – | – | – | – |
| O=c1[nH]c(=O)n([C@H]2CC(O)C(CO)S2)cc1C(F)(F)F (stereo partly specified) | 15 | 139 | > 10 | < 1.6 | – | – | – | – | – |
| O=c1[nH]c(=O)n([C@H]2CC(O)C(CO)S2)cc1I (stereo partly specified) | 10 | >100 | 4 | 0.8 | 3.5 | – | – | – | – |
| CCC(C)c1cn(C2CC(O)C(CO)S2)c(=O)[nH]c1=O (stereo unspecified) | > 100 | >500 | > 100 | – | – | – | – | – | – |
| COC(C)c1cn(C2CC(O)C(CO)S2)c(=O)[nH]c1=O (stereo unspecified) | > 100 | >500 | > 100 | > 100 | > 40 | – | – | – | – |

| SMILES | IC50 [1] [µM] | CCID50 (Vero [2]) [µM] | IC50 (Human betaherpesvirus 5) [µM] | IC50 (Human alphaherpesvirus 1) [µM] | IC50 (Human alphaherpesvirus 3) [µM] | CCID50 (Vero [3]) [µM] | IC50 (MRC5) | IC50 (Vero [4]) [µM] | IC50 (Vero [5]) [µM] |
| --- | --- | --- | --- | --- | --- | --- | --- | --- | --- |
| CSCc1cn(C2CC(O)C(CO)S2)c(=O)[nH]c1=O (stereo unspecified) | > 100 | >500 | > 100 | – | – | – | – | – | – |
| O=c1[nH]c(=O)n([C@H]2CC(O)C(CO)S2)cc1C=C(F)F (stereo partly specified) | > 100 | >500 | > 100 | – | > 10 | – | – | – | – |
| O=c1[nH]c(=O)n(C2CC(O)C(CO)S2)cc1CCCl (stereo unspecified) | > 100 | >200 | – | 0.15 | 0.3 | – | – | – | – |
| CCCc1cn([C@H]2CC(O)C(CO)S2)c(=O)[nH]c1=O (stereo partly specified) | > 10 | >100 | > 100 | 6.8 | 3 | – | – | – | – |
| O=c1[nH]c(=O)n([C@H]2CC(O)C(CO)S2)cc1Br (stereo partly specified) | > 100 | >500 | 0.44 | 5.3 | > 40 | – | – | – | – |
| CCc1cn([C@@H]2CC(O)C(CO)S2)c(=O)[nH]c1=O (stereo partly specified) | > 100 | >100 | > 100 | – | > 100 | – | – | – | – |
| COCc1cn(C2CC(O)C(CO)S2)c(=O)[nH]c1=O (stereo unspecified) | > 10 | – | > 100 | > 10 | > 10 | – | – | – | – |
| O=c1[nH]c(=O)n([C@H]2CC(O)C(CO)S2)cc1C(F)=C(Cl)Cl (stereo partly specified) | – | >500 | > 100 | > 50 | > 100 | – | – | – | – |
| O=c1[nH]c(=O)n(C2CC(O)C(CO)S2)cc1F (stereo unspecified) | > 10 | 92 | > 100 | > 10 | > 100 | – | – | – | – |
| CC(=O)c1cn(C2CC(O)C(CO)S2)c(=O)[nH]c1=O (stereo unspecified) | > 10 | 351 | > 100 | > 10 | > 10 | – | – | – | – |
| C=Cc1cn([C@H]2CC(O)C(CO)S2)c(=O)[nH]c1=O (stereo partly specified) | > 100 | >500 | 93 | 1.4 | 1.1 | – | – | – | – |
| O=c1[nH]c(=O)n([C@H]2CC(O)C(CO)S2)cc1Cl (stereo partly specified) | > 100 | 59 | 0.2 | > 100 | > 40 | – | – | – | – |
| CCc1cn([C@H]2CC(O)C(CO)S2)c(=O)[nH]c1=O (stereo partly specified) | – | >100 | 138 | – | 0.99 | – | – | 0.17 | 2 |
| O=c1[nH]c(=O)n([C@@H]2CC(O)C(CO)S2)cc1C(F)(F)F (stereo partly specified) | > 100 | >500 | > 100 | – | – | – | – | – | – |
| O=c1[nH]c(=O)n([C@H]2CC(O)C(CO)S2)cc1C1CC1 (stereo partly specified) | > 100 | >500 | > 100 | 1.6 | 0.5 | – | – | – | – |
| CC(C)c1cn([C@H]2CC(O)C(CO)S2)c(=O)[nH]c1=O (stereo partly specified) | > 100 | >500 | > 100 | 2.2 | 4.1 | – | – | – | – |
| Nc1nc2c(ncn2COCCO)c(=O)[nH]1 [ACYCLOVIR] | 1.7 | >500 | > 85 | 1.8 | – | – | – | – | – |
| O=c1[nH]c(=O)n([C@H]2C[C@H](O)[C@@H](CO)O2)cc1/C=C/Br [BRIVUDINE] | 10 | >250 | > 100 | 1.4 | < 1 | – | – | – | – |
| Nc1nc(O)c2ncn(CCC(CO)CO)c2n1 [PENCICLOVIR] | 12.8 | – | > 100 | 3.9 | 78.7 | – | – | – | – |
